From patent US20200017495A1, “NOVEL HETEROCYCLIC COMPOUNDS AND THEIR USE IN PREVENTING OR TREATING BACTERIAL INFECTIONS” (priority 2017, published 2020)

Columns and labels:
[1] = system: Serratia marcescens (SMA) isolates; test: MIC of compounds alone and combined with antibacterials, broth microdilution (CLSI); format: cell-based
Procedure, shortened: (§1)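 Log-phase isolates were inoculated at a final 5.10^5 CFU/mL in cation-adjusted Mueller-Hinton broth and incubated 16-20 h at 35° C in ambient air. MIC was the lowest concentration preventing visible growth; for combinations, the antibacterial MIC was read at each compound concentration.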

[2] = system: Morganella morganii (MMO) isolates; test: as above; format: cell-based
Procedure, shortened: as §1

C=CC1=C(C(=O)O)N2C(=O)[C@@H](NC(=O)/C(=N\OCC(=O)O)c3csc(N)n3)[C@H]2SC1 [FIX, Cefixime]
MIC ATB in combination ([1]; SMA UFR30, AF2 @ 8 μg/mL): 0.5 µg/mL
MIC ATB in combination ([1]; SMA UFR30, AF3 @ 8 μg/mL): <=0.25 μg/mL
MIC ATB in combination ([1]; SMA UFR30, CLA @ 4 μg/mL): 1 µg/mL
MIC ATB in combination ([1]; SMA UFR134, AF2 @ 8 μg/mL): 0.5 µg/mL
MIC ATB in combination ([1]; SMA UFR134, AF3 @ 8 μg/mL): <=0.25 μg/mL
MIC ATB in combination ([1]; SMA UFR134, CLA @ 4 μg/mL): 32 µg/mL
MIC ATB in combination ([1]; SMA UFR135, AF2 @ 8 μg/mL): 2 µg/mL
MIC ATB in combination ([1]; SMA UFR135, AF3 @ 8 μg/mL): 2 µg/mL
MIC ATB in combination ([1]; SMA UFR135, CLA @ 4 μg/mL): 32 µg/mL
MIC ATB in combination ([1]; SMA UFR136, AF2 @ 8 μg/mL): 4 µg/mL
MIC ATB in combination ([1]; SMA UFR136, AF3 @ 8 μg/mL): 4 µg/mL
MIC ATB in combination ([1]; SMA UFR136, CLA @ 4 μg/mL): >128 µg/mL
MIC ATB in combination ([1]; SMA UFR137, AF2 @ 8 μg/mL): <=0.25 μg/mL
MIC ATB in combination ([1]; SMA UFR137, AF3 @ 8 μg/mL): <=0.25 μg/mL
MIC ATB in combination ([1]; SMA UFR137, CLA @ 4 μg/mL): 1 µg/mL
MIC ATB in combination ([1]; SMA UFR138, AF2 @ 8 μg/mL): <=0.25 μg/mL
MIC ATB in combination ([1]; SMA UFR138, AF3 @ 8 μg/mL): <=0.25 μg/mL
MIC ATB in combination ([1]; SMA UFR138, CLA @ 4 μg/mL): 0.5 µg/mL
MIC ATB in combination ([1]; SMA UFR139, AF2 @ 8 μg/mL): 1 µg/mL
MIC ATB in combination ([1]; SMA UFR139, AF3 @ 8 μg/mL): <=0.25 μg/mL
MIC ATB in combination ([1]; SMA UFR139, CLA @ 4 μg/mL): 2 µg/mL
MIC ATB in combination ([1]; SMA UFR141, AF2 @ 8 μg/mL): <=0.25 μg/mL
MIC ATB in combination ([1]; SMA UFR141, AF3 @ 8 μg/mL): 0.5 µg/mL
MIC ATB in combination ([1]; SMA UFR141, CLA @ 4 μg/mL): 0.5 µg/mL
MIC ATB in combination ([1]; SMA UFR142, AF2 @ 8 μg/mL): 0.5 µg/mL
MIC ATB in combination ([1]; SMA UFR142, AF3 @ 8 μg/mL): 1 µg/mL
MIC ATB in combination ([1]; SMA UFR142, CLA @ 4 μg/mL): 2 µg/mL
MIC ATB in combination ([1]; SMA UFR143, AF2 @ 8 μg/mL): <=0.25 μg/mL
MIC ATB in combination ([1]; SMA UFR143, AF3 @ 8 μg/mL): <=0.25 μg/mL
MIC ATB in combination ([1]; SMA UFR143, CLA @ 4 μg/mL): 64 µg/mL
MIC ATB in combination ([1]; SMA UFR239, AF2 @ 8 μg/mL): 0.25 µg/mL
MIC ATB in combination ([1]; SMA UFR239, AF3 @ 8 μg/mL): <=0.25 μg/mL
MIC ATB in combination ([1]; SMA UFR239, CLA @ 4 μg/mL): 2 µg/mL
MIC ([1]; strain SMA UFR30, genotype OXA-405): 1 µg/mL
MIC ([1]; strain SMA UFR134, genotype TEM-1, BES-1): >128 µg/mL
MIC ([1]; strain SMA UFR135, genotype TEM-1, KPC-2): 64 µg/mL
MIC ([1]; strain SMA UFR136, genotype TEM-1, SHV-12, KPC-2): >128 µg/mL
MIC ([1]; strain SMA UFR137, genotype SME-1): 0.5 µg/mL
MIC ([1]; strain SMA UFR138, genotype SME-1): 0.5 µg/mL
MIC ([1]; strain SMA UFR139, genotype SME-2): 1 µg/mL
MIC ([1]; strain SMA UFR140, genotype IMP-1): >128 µg/mL
MIC ATB in combination ([1]; strain SMA UFR140, with AF2 @ 8 μg/mL): >128 µg/mL
MIC ATB in combination ([1]; strain SMA UFR140, with AF3 @ 8 μg/mL): >128 µg/mL
MIC ATB in combination ([1]; strain SMA UFR140, with CLA @ 4 μg/mL): >128 µg/mL
MIC ([1]; strain SMA UFR141, genotype OXA-48): 2 µg/mL
MIC ([1]; strain SMA UFR142, genotype OXA-48): 2 µg/mL
MIC ([1]; strain SMA UFR143, compound alone): 512 µg/mL
MIC ([1]; strain SMA UFR143, genotype CTX-M-15, OXA-1, OXA-48): 512 µg/mL
MIC ([1]; strain SMA UFR238, genotype OXA-48): 1 µg/mL
MIC ATB in combination ([1]; strain SMA UFR238, with AF2 @ 8 μg/mL): 0.5 µg/mL
MIC ATB in combination ([1]; strain SMA UFR238, with AF3 @ 8 μg/mL): 0.5 µg/mL
MIC ATB in combination ([1]; strain SMA UFR238, with CLA @ 4 μg/mL): 2 µg/mL
MIC ([1]; strain SMA UFR239, genotype ESAC): 2 µg/mL
MIC ATB in combination ([2]; MMO 200321, AF2 @ 8 μg/mL): 1 µg/mL
MIC ATB in combination ([2]; MMO 200321, AF3 @ 8 μg/mL): 1 µg/mL
MIC ATB in combination ([2]; MMO 200321, CLA @ 4 μg/mL): 32 µg/mL
MIC ATB in combination ([2]; MMO UFR144, AF2 @ 8 μg/mL): 1 µg/mL
MIC ATB in combination ([2]; MMO UFR144, AF3 @ 8 μg/mL): 0.5 µg/mL
MIC ATB in combination ([2]; MMO UFR144, CLA @ 4 μg/mL): 32 µg/mL
MIC ATB in combination ([2]; MMO UFR240, AF2 @ 8 μg/mL): <=0.25 μg/mL
MIC ATB in combination ([2]; MMO UFR240, AF3 @ 8 μg/mL): <=0.25 μg/mL
MIC ATB in combination ([2]; MMO UFR240, CLA @ 4 μg/mL): 8 µg/mL
MIC ATB in combination ([2]; MMO UFR241, AF2 @ 8 μg/mL): 2 µg/mL
MIC ATB in combination ([2]; MMO UFR241, AF3 @ 8 μg/mL): 0.5 µg/mL
MIC ATB in combination ([2]; MMO UFR241, CLA @ 4 μg/mL): 32 µg/mL
MIC ATB in combination ([2]; MMO UFR242, AF2 @ 8 μg/mL): <=0.25 μg/mL
MIC ATB in combination ([2]; MMO UFR242, AF3 @ 8 μg/mL): 1 µg/mL
MIC ATB in combination ([2]; MMO UFR242, CLA @ 4 μg/mL): 64 µg/mL
MIC ATB in combination ([2]; MMO UFR243, AF2 @ 8 μg/mL): 0.5 µg/mL
MIC ATB in combination ([2]; MMO UFR243, AF3 @ 8 μg/mL): <=0.25 μg/mL
MIC ATB in combination ([2]; MMO UFR243, CLA @ 4 μg/mL): 32 µg/mL
MIC ATB in combination ([2]; MMO UFR244, AF2 @ 8 μg/mL): <=0.25 μg/mL
MIC ATB in combination ([2]; MMO UFR244, AF3 @ 8 μg/mL): <=0.25 μg/mL
MIC ATB in combination ([2]; MMO UFR244, CLA @ 4 μg/mL): 8 µg/mL
MIC ATB in combination ([2]; MMO UFR245, AF2 @ 8 μg/mL): 1 µg/mL
MIC ATB in combination ([2]; MMO UFR245, AF3 @ 8 μg/mL): <=0.25 μg/mL
MIC ATB in combination ([2]; MMO UFR245, CLA @ 4 μg/mL): 64 µg/mL
MIC ATB in combination ([2]; MMO UFR246, AF2 @ 8 μg/mL): 1 µg/mL
MIC ATB in combination ([2]; MMO UFR246, AF3 @ 8 μg/mL): 0.5 µg/mL
MIC ATB in combination ([2]; MMO UFR246, CLA @ 4 μg/mL): 64 µg/mL
MIC ATB in combination ([2]; MMO UFR247, AF2 @ 8 μg/mL): <=0.25 μg/mL
MIC ATB in combination ([2]; MMO UFR247, AF3 @ 8 μg/mL): <=0.25 μg/mL
MIC ATB in combination ([2]; MMO UFR247, CLA @ 4 μg/mL): 32 µg/mL
MIC ([2]; strain MMO 200321, genotype TEM-1, CTX-M-15, OXA-1): >128 µg/mL
MIC ([2]; strain MMO UFR144, genotype TEM-1, CTX-M-15): >128 µg/mL
MIC ATB in combination ([2]; strain MMO UFR145, with AF2 @ 8 μg/mL): >128 µg/mL
MIC ATB in combination ([2]; strain MMO UFR145, with AF3 @ 8 μg/mL): >128 µg/mL
MIC ATB in combination ([2]; strain MMO UFR145, with CLA @ 4 μg/mL): >128 µg/mL
MIC ([2]; strain MMO UFR240, genotype CTX-M-9): 1 µg/mL
MIC ([2]; strain MMO UFR241, genotype TEM-1, CTX-M-15): >128 µg/mL
MIC ([2]; strain MMO UFR242, genotype TEM-52): 1024 µg/mL
MIC ([2]; strain MMO UFR243, genotype DHA-1): 8 µg/mL
MIC ([2]; strain MMO UFR244, genotype DHA-1): 4 µg/mL
MIC ([2]; strain MMO UFR245, genotype DHA-1): 32 µg/mL
MIC ([2]; strain MMO UFR246, genotype DHA-1): 32 µg/mL
